Source: patent publication EP0183129A1, “Quinolonecarboxylic acid derivatives” (KYORIN PHARMACEUTICAL CO., LTD., priority 1984, dated 1986)
Counter-ions that a name gives are not always drawn. Like-named read-outs stand apart in the source and are kept apart here.

Experiments:
S. pyogenes 3130 = test: In vitro antibacterial activity, MIC (clinical isolates); assay type: cell-based; conditions: Streptococcus pyogenes, read-out: MIC
S. pneumoniae 15 = test: as above; assay type: cell-based; conditions: Streptococcus pneumoniae; S. pneumoniae 15; 10^6 cells/ml; clinical isolate; read-out: MIC
Shigella sonnei IID 969 = test: In vitro antibacterial activity, MIC (standard strain); assay type: cell-based; conditions: IID969, 10^6 cells/ml
Description: Experiment-1 In vitro antibacterial activity
The in vitro antibacterial activity against gram-positive and gram-negative bacteria has been investivated.
The minimum inhibitory concentration (MIC) was determined in accordance with the method recommended by Japan Society of Chemotherapy.

[1] = test system: Alcaligenes faecalis 0104002; test: as above; assay type: cell-based
K. pneumoniae 1-220S = test: as above; assay type: cell-based; conditions: Klebsiella pneumoniae, 1220S; K. pneumoniae 1-220S; 10^6 cells/ml; standard strain; read-out: MIC
S. pneumoniae 2054 = test: In vitro antibacterial activity, MIC (clinical isolates); assay type: cell-based; conditions: Streptococcus pneumoniae; S. pneumoniae 2054; 10^6 cells/ml; clinical isolate; read-out: MIC
[2] = test system: Bacteroides fragilis GM 7000; test: In vitro antibacterial activity, MIC (standard strain); assay type: cell-based; conditions: GM7000; Bacteroides fragilis GM 7000; 10^6 cells/ml; standard strain; read-out: MIC
S. pyogenes 4340 = test: In vitro antibacterial activity, MIC (clinical isolates); assay type: cell-based; conditions: Streptococcus pyogenes; S. pyogenes 4340; 10^6 cells/ml; clinical isolate; read-out: MIC
S. faecalis 49 = test: as above; assay type: cell-based; conditions: Enterococcus faecalis; S. faecalis 49; 10^6 cells/ml; clinical isolate; read-out: MIC
C. ramosum = test: In vitro antibacterial activity, MIC (standard strain); assay type: cell-based; conditions: Thomasclavelia ramosa; C. ramosum; 10^6 cells/ml; standard strain; read-out: MIC
[3] = test system: Pseudomonas aeruginosa V-1; test: as above; assay type: cell-based; conditions: V1
[4] = test system: Salmonella entritidis IID 604; test: as above; assay type: cell-based; conditions: IID604; Salmonella entritidis IID 604; 10^6 cells/ml; standard strain; read-out: MIC
[5] = test system: Acinetobacter anitratus IID 876; test: as above; assay type: cell-based; conditions: Acinetobacter calcoaceticus, IID876, Acinetobacter anitratus IID 876; 10^6 cells/ml; standard strain; read-out: MIC
S. agalactiae 4049 = test: In vitro antibacterial activity, MIC (clinical isolates); assay type: cell-based; conditions: Streptococcus agalactiae; S. agalactiae 4049; 10^6 cells/ml; clinical isolate; read-out: MIC
S. faecalis IID 682 = test: In vitro antibacterial activity, MIC (standard strain); assay type: cell-based; conditions: Enterococcus faecalis, IID682; S. faecalis IID 682; 10^6 cells/ml; standard strain; read-out: MIC
S. pyogenes 3102 = test: In vitro antibacterial activity, MIC (clinical isolates); assay type: cell-based; conditions: Streptococcus pyogenes; S. pyogenes 3102; 10^6 cells/ml; clinical isolate; read-out: MIC
S. pyogenes 3107 = test: as above; assay type: cell-based; conditions: Streptococcus pyogenes; S. pyogenes 3107; 10^6 cells/ml; clinical isolate; read-out: MIC
S. agalactiae 4342 = test: as above; assay type: cell-based; conditions: Streptococcus agalactiae; S. agalactiae 4342; 10^6 cells/ml; clinical isolate; read-out: MIC
P. aeruginosa IID 1210 = test: In vitro antibacterial activity, MIC (standard strain); assay type: cell-based; conditions: Pseudomonas aeruginosa, IID1210; P. aeruginosa IID 1210; 10^6 cells/ml; standard strain; read-out: MIC
B. fragilis 0558 = test: as above; assay type: cell-based, Bacteroides fragilis; conditions: Bacteroides fragilis, 0558, B. fragilis 0558; 10^6 cells/ml; standard strain; read-out: MIC
E. coli ATCC 10536 = test: as above; assay type: cell-based; conditions: Escherichia coli, ATCC10536; E. coli ATCC 10536; 10^6 cells/ml; standard strain; read-out: MIC
S. epidermidis IID 866 = test: as above; assay type: cell-based; conditions: Staphylococcus epidermidis, IID866, S. epidermidis IID 866; 10^6 cells/ml; standard strain; read-out: MIC
E. coli ML 4707 = test: as above; assay type: cell-based; conditions: Escherichia coli, ML4707; E. coli ML 4707; 10^6 cells/ml; standard strain; read-out: MIC
S. aureus Smith = test: as above; assay type: cell-based, Staphylococcus aureus; conditions: Staphylococcus aureus; S. aureus Smith; 10^6 cells/ml; standard strain; read-out: MIC
[6] = test system: Fusobacterium varium KYA 8501; test: as above; assay type: cell-based; conditions: Fusobacterium varium, KYA8501, Fusobacterium varium KYA 8501; 10^6 cells/ml; standard strain; read-out: MIC
S. marcescens GN 7577 = test: as above; assay type: cell-based; conditions: Serratia marcescens, GN7577; S. marcescens GN 7577; 10^6 cells/ml; standard strain; read-out: MIC
S. agalactiae 4470 = test: In vitro antibacterial activity, MIC (clinical isolates); assay type: cell-based; conditions: Streptococcus agalactiae; S. agalactiae 4470; 10^6 cells/ml; clinical isolate; read-out: MIC
[7] = test system: Citrobacter freundii IID 976; test: In vitro antibacterial activity, MIC (standard strain); assay type: cell-based; conditions: IID976; Citrobacter freundii IID 976; 10^6 cells/ml; standard strain; read-out: MIC
[8] = test system: Bacillus subtilis PCI 219; test: as above; assay type: cell-based; conditions: PCI219; Bacillus subtilis PCI 219; 10^6 cells/ml; standard strain; read-out: MIC
[9] = test system: Yersinia enterocolitica IID 981; test: as above; assay type: cell-based; conditions: IID981; Yersinia enterocolitica IID 981; 10^6 cells/ml; standard strain; read-out: MIC
[10] = Alcaligenes faecalis, 0104002, Alcaligenes faecalis 0104002, 10^6 cells/ml, standard strain, read-out: MIC
[11] = Pseudomonas aeruginosa V-1, 10^6 cells/ml, standard strain, read-out: MIC

SMILES: CNCC1CCN(c2cc3c(cc2F)c(=O)c(C(=O)O)cn3C2CC2)C1 (stereo not drawn) [Example 9, 1-Cyclopropyl-6-fluoro-1,4-dihydro-7-(3-methylaminomethyl-l-pyrrolidinyl)-4-oxo-3-quinolinecarboxylic acid hydrochloride]
- MIC (S. pyogenes 3130): 0.1 µg/mL
- MIC (S. pneumoniae 15): 0.39 µg/mL
- MIC (Shigella sonnei IID 969): 0.1 µg/mL
- MIC ([1]; Alcaligenes faecalis, 0104002): 1.56 µg/mL
- MIC (K. pneumoniae 1-220S): 0.39 µg/mL
- MIC (S. pneumoniae 2054): 0.78 µg/mL
- MIC [2]: 25 µg/mL
- MIC (S. pyogenes 4340): 0.2 µg/mL
- MIC (S. faecalis 49): 0.39 µg/mL
- MIC (C. ramosum): 12.5 µg/mL
- MIC ([3]; Pseudomonas aeruginosa): 1.56 µg/mL
- MIC [4]: 0.2 µg/mL
- MIC [5]: 0.78 µg/mL
- MIC (S. agalactiae 4049): 0.78 µg/mL
- MIC (S. faecalis IID 682): 0.39 µg/mL
- MIC (S. pyogenes 3102): 0.1 µg/mL
- MIC (S. pyogenes 3107): 0.1 µg/mL
- MIC (S. agalactiae 4342): 0.39 µg/mL
- MIC (P. aeruginosa IID 1210): 3.13 µg/mL
- MIC (B. fragilis 0558): 12.5 µg/mL
- MIC (E. coli ATCC 10536): 0.1 µg/mL
- MIC (S. epidermidis IID 866): 0.1 µg/mL
- MIC (E. coli ML 4707): 0.1 µg/mL
- MIC (S. aureus Smith): 0.39 µg/mL
- MIC [6]: 25 µg/mL
- MIC (S. marcescens GN 7577): 6.25 µg/mL
- MIC (S. agalactiae 4470): 0.39 µg/mL
- MIC [7]: 0.2 µg/mL
- MIC [8]: 0.05 µg/mL
- MIC [9]: 0.39 µg/mL

SMILES: CCCNCC1CCN(c2c(F)cc3c(=O)c(C(=O)O)cn(C4CC4)c3c2F)C1 (stereo not drawn) [Example 10, 1-Cyclopropyl-6,8-difluoro-1,4-dihydro-4-oxo-7-(3-n-propylaminomethyl-l-pyrrolidinyl)-3-quinolinecarboxylic acid hydrochloride]
- MIC (S. pyogenes 3130): 0.2 µg/mL
- MIC (S. pneumoniae 15): 0.39 µg/mL
- MIC (Shigella sonnei IID 969): 0.025 µg/mL
- MIC [1, 10]: 0.78 µg/mL
- MIC (K. pneumoniae 1-220S): 0.2 µg/mL
- MIC (S. pneumoniae 2054): 0.78 µg/mL
- MIC [2]: 1.56 µg/mL
- MIC (S. pyogenes 4340): 0.2 µg/mL
- MIC (S. faecalis 49): 0.39 µg/mL
- MIC (C. ramosum): 1.56 µg/mL
- MIC [3, 11]: 1.56 µg/mL
- MIC [4]: 0.1 µg/mL
- MIC [5]: 0.05 µg/mL
- MIC (S. agalactiae 4049): 0.78 µg/mL
- MIC (S. faecalis IID 682): 0.39 µg/mL
- MIC (S. pyogenes 3102): 0.2 µg/mL
- MIC (S. pyogenes 3107): 0.2 µg/mL
- MIC (S. agalactiae 4342): 0.2 µg/mL
- MIC (P. aeruginosa IID 1210): 3.13 µg/mL
- MIC (B. fragilis 0558): 0.78 µg/mL
- MIC (E. coli ATCC 10536): 0.1 µg/mL
- MIC (S. epidermidis IID 866): 0.1 µg/mL
- MIC (E. coli ML 4707): 0.2 µg/mL
- MIC (S. aureus Smith): 0.05 µg/mL
- MIC [6]: 6.25 µg/mL
- MIC (S. marcescens GN 7577): 3.13 µg/mL
- MIC (S. agalactiae 4470): 0.39 µg/mL
- MIC [7]: 0.05 µg/mL
- MIC [8]: 0.0125 µg/mL
- MIC [9]: 0.1 µg/mL

SMILES: CC(C)NCC1CCN(c2c(F)cc3c(=O)c(C(=O)O)cn(C4CC4)c3c2F)C1.Cl (stereo not drawn) [Example 11, 1-Cyclopropyl-6,8-difluoro-1,4-dihydro-7-(3-isopropylaminomethyl-1-pyrrolidinyl)-4-oxo-3-quinolinecarboxylic acid hydrochloride]
- MIC (S. pyogenes 3130): 0.2 µg/mL
- MIC (S. pneumoniae 15): 0.2 µg/mL
- MIC (Shigella sonnei IID 969): 0.05 µg/mL
- MIC [1, 10]: 1.56 µg/mL
- MIC (K. pneumoniae 1-220S): 0.2 µg/mL
- MIC (S. pneumoniae 2054): 0.2 µg/mL
- MIC [2]: 1.56 µg/mL
- MIC (S. pyogenes 4340): 0.2 µg/mL
- MIC (S. faecalis 49): 0.2 µg/mL
- MIC (C. ramosum): 0.78 µg/mL
- MIC [3, 11]: 1.56 µg/mL
- MIC [4]: 0.2 µg/mL
- MIC [5]: 0.1 µg/mL
- MIC (S. agalactiae 4049): 0.39 µg/mL
- MIC (S. faecalis IID 682): 0.39 µg/mL
- MIC (S. pyogenes 3102): 0.2 µg/mL
- MIC (S. pyogenes 3107): 0.2 µg/mL
- MIC (S. agalactiae 4342): 0.2 µg/mL
- MIC (P. aeruginosa IID 1210): 3.13 µg/mL
- MIC (B. fragilis 0558): 0.78 µg/mL
- MIC (E. coli ATCC 10536): 0.05 µg/mL
- MIC (S. epidermidis IID 866): 0.05 µg/mL
- MIC (E. coli ML 4707): 0.05 µg/mL
- MIC (S. aureus Smith): 0.05 µg/mL
- MIC [6]: 3.13 µg/mL
- MIC (S. marcescens GN 7577): 3.13 µg/mL
- MIC (S. agalactiae 4470): 0.2 µg/mL
- MIC [7]: 0.1 µg/mL
- MIC [8]: 0.025 µg/mL
- MIC [9]: 0.2 µg/mL

SMILES: CNCC1CCN(c2c(F)cc3c(=O)c(C(=O)O)cn(C4CC4)c3c2Cl)C1 (stereo not drawn) [Example 12, 8-Chloro-l-cyclopropyl-6-fluoro-1,4-dihydro-7-(3-methylaminomethyl-1-pyrrolidinyl)-4-oxo-3-quinolinecarboxylic acid hydrochloride]
- MIC (S. pyogenes 3130): 0.05 µg/mL
- MIC (S. pneumoniae 15): 0.05 µg/mL
- MIC (Shigella sonnei IID 969): 0.025 µg/mL
- MIC [1, 10]: 0.39 µg/mL
- MIC (K. pneumoniae 1-220S): 0.05 µg/mL
- MIC (S. pneumoniae 2054): 0.05 µg/mL
- MIC [2]: 0.2 µg/mL
- MIC (S. pyogenes 4340): 0.05 µg/mL
- MIC (S. faecalis 49): 0.05 µg/mL
- MIC (C. ramosum): 0.39 µg/mL
- MIC [3, 11]: 0.39 µg/mL
- MIC [4]: 0.05 µg/mL
- MIC [5]: 0.05 µg/mL
- MIC (S. agalactiae 4049): 0.05 µg/mL
- MIC (S. faecalis IID 682): 0.05 µg/mL
- MIC (S. pyogenes 3102): 0.05 µg/mL
- MIC (S. pyogenes 3107): 0.05 µg/mL
- MIC (S. agalactiae 4342): 0.05 µg/mL
- MIC (P. aeruginosa IID 1210): 1.56 µg/mL
- MIC (B. fragilis 0558): 0.1 µg/mL
- MIC (E. coli ATCC 10536): 0.025 µg/mL
- MIC (S. epidermidis IID 866): 0.025 µg/mL
- MIC (E. coli ML 4707): 0.025 µg/mL
- MIC (S. aureus Smith): 0.025 µg/mL
- MIC [6]: 0.39 µg/mL
- MIC (S. marcescens GN 7577): 0.78 µg/mL
- MIC (S. agalactiae 4470): 0.05 µg/mL
- MIC [7]: 0.05 µg/mL
- MIC [8]: 0.0125 µg/mL
- MIC [9]: 0.05 µg/mL
